Results as given in PubChem BioAssay AID720585 (Broad Institute, 2013).
Activity calls are given as the source filed them.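 The calls were made as follows: active = fitted curve falling to -50% or lower, with AC50 no more than twice the sample's top valid dose; inactive = the rest, including changes in the wrong direction.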

System: not listed separately
Assay: A549 lung cell cytotoxicity, dose response, cytotoxicity control, CellTiter-Glo luminescence, dry powder samples (AID 720585)
Details: A549 viability, CellTiter-Glo ATP luminescence, 72 h; at 26 µM (top of the series)

| SMILES | activity change, negative = cytotoxicity |
| --- | --- |
| O=C(O)CC/C(=C\c1ccccc1[N+](=O)[O-])c1nc2ccccc2s1 | -7.05% (inactive) |
| O=C(Nc1ccc2snnc2c1)N1CCN(c2ccccc2)CC1 | -13.4% (inactive) |
| O=C(c1ccc2c(c1)OCO2)N1CCN(c2ccccc2)CC1 | -3.52% (inactive) |
| O=C(c1ccc2c(c1)OCO2)N1CCN(Cc2ccccc2)CC1 | 9.39% (inactive) |
| O=C(Nc1ccccc1)N1CCN(c2ccccc2)CC1 | -0.224% (inactive) |
| CC(=O)c1ccc(N2CCN(C(=O)c3ccc4c(c3)OCCO4)CC2)cc1 | -10.1% (inactive) |
| O=C(COc1ccc2ccc(=O)oc2c1)N1CCN(c2ccc(F)cc2)CC1 | -15.6% (inactive) |
| O=C(Nc1cccnc1)N1CCN(c2ccccc2)CC1 | -2.28% (inactive) |
| O=C(c1ccc2c(c1)OCO2)N1CCN(c2ccc(F)cc2)CC1 | -0.413% (inactive) |
| O=C(Nc1ccncc1)c1cc2nc(C3CC3)cc(C(F)F)n2n1 | 2.81% (inactive) |
| O=C(Nc1ccc2[nH]ccc2c1)N1CCN(c2ccccc2)CC1 | -0.377% (inactive) |
| O=C(Nc1ccc2snnc2c1)N1CCOCC1 | 9.86% (inactive) |
| Cc1ccc(-c2cc(C(F)(F)F)n3nc(C(=O)Nc4cccnc4)cc3n2)cc1 | -7.78% (inactive) |
| COc1cc(/C=C/C(=O)Nc2cccnc2)cc(OC)c1OC | 11.1% (inactive) |
| O=C(Nc1ccc(Cl)cc1)c1cc2nc(C3CC3)cc(C(F)(F)F)n2n1 | 12.6% (inactive) |
| COc1ccc(-c2cc(C(F)(F)F)n3nc(C(=O)Nc4cccnc4)cc3n2)cc1 | 5.08% (inactive) |
| CC(=O)c1ccc(N2CCN(C(=O)c3ccc(C)cc3)CC2)cc1 | -8.81% (inactive) |
| CC(=O)c1ccc(N2CCN(C(=O)c3cccnc3)CC2)cc1 | 0.559% (inactive) |
| O=C(Nc1ccc2snnc2c1)N1CCCCC1 | -9.31% (inactive) |
| CCN(CC)c1ccc2cc(C(=O)c3cccs3)c(=O)oc2c1 | 7.58% (inactive) |
| Cc1cccc(/C=C(\CCC(=O)O)c2nc3ccccc3s2)c1 | -7.62% (inactive) |
| CC(=O)c1ccc(N2CCN(C(=O)c3ccc(F)cc3)CC2)cc1 | -0.22% (inactive) |
| Cc1ccc(/C=C(\CC(=O)O)c2nc3ccccc3s2)cc1[N+](=O)[O-] | 7.43% (inactive) |
| CC(=O)c1ccc(N2CCN(Cc3ccc4c(c3)OCO4)CC2)cc1 | -4.27% (inactive) |
| COc1ccc(C(=O)N2CCN(c3ccc(C(C)=O)cc3)CC2)cc1 | 13.7% (inactive) |
| CC(=O)c1ccc(N2CCN(C(=O)c3ccc(Br)cc3)CC2)c(F)c1 | -2.87% (inactive) |
| O=C(Nc1ccc(F)cc1)N1CCN(c2ccccc2)CC1 | -4.84% (inactive) |

| SMILES | activity change, negative = cytotoxicity |
| --- | --- |
| COc1ccc(NC(=O)N2CCN(c3ccccc3)CC2)cc1 | -3.72% (inactive) |
| O=C(Nc1cccnc1)c1cnn2c(C(F)F)cc(C3CC3)nc12 | -2.75% (inactive) |
| CC(=O)c1ccc(N2CCN(C(=O)c3cccc(Cl)c3)CC2)cc1 | 4.97% (inactive) |
| O=C(Nc1cccnc1)c1cnn2c(C(F)(F)F)cc(-c3ccccc3)nc12 | -2.52% (inactive) |
| Cc1cc(C)n2nc(C(=O)Nc3cccnc3)cc2n1 | 0.879% (inactive) |
| COC(=O)c1c(C(=O)OC)c(-c2cccc(F)c2)n2c1CS(=O)C2 (centres undefined) | 2.89% (inactive) |
| CCc1ccc(C(=O)N2CCN(Cc3ccc4c(c3)OCO4)CC2)cc1 | -0.901% (inactive) |
| Cc1ccc(NC(=O)N2CCN(c3ccccc3)CC2)cc1 | -5.15% (inactive) |
| O=C(Nc1cccnc1)c1cc2nc(-c3cccs3)cc(C(F)(F)F)n2n1 | -3.55% (inactive) |
| CC(=O)c1ccc(N2CCN(C(=O)c3ccc4ncsc4c3)CC2)cc1 | 2.15% (inactive) |
| CC(=O)c1ccc(N2CCN(C(=O)c3ccc(Cl)cc3)CC2)cc1 | 3.76% (inactive) |
| COc1ccc(N2CCN(C(=O)c3ccc4c(c3)OCO4)CC2)cc1 | -3.29% (inactive) |
| CCOC(=O)N1CCN(C(=O)Nc2ccc3snnc3c2)CC1 | -11% (inactive) |
| Cc1ccc(/C=C(\CCC(=O)O)c2nc3ccccc3s2)cc1 | -2.14% (inactive) |
| Cc1nc2ccc(NC(=O)N3CCN(c4ccccc4)CC3)cc2s1 | 0.35% (inactive) |
| CC(C)(C)c1ccc(C(=O)N2CCN(c3ccc4c(c3)OCO4)CC2)cc1 | -3.25% (inactive) |
| O=C(c1ccc2c(c1)OCO2)N1CCN(c2ccc(Cl)cc2)CC1 | -6.96% (inactive) |
| Cc1nc2cc(NC(=O)N3CCN(c4ccccc4)CC3)ccc2o1 | -4.28% (inactive) |
| COc1cccc(NC(=O)CCC2CCN(C(=O)c3ccc(C(C)=O)s3)CC2)c1 | -3.35% (inactive) |
| O=C(O)CC/C(=C\c1ccc([N+](=O)[O-])cc1)c1nc2ccccc2s1 | 5.24% (inactive) |
| COc1cccc(C(=O)N2CCN(c3ccc(C(C)=O)cc3)CC2)c1 | -3.71% (inactive) |
| CC(=O)c1ccc(N2CCN(C(=O)c3ccc4c(c3)OCO4)CC2)cc1 | -12.8% (inactive) |
| COc1cccc(NC(=O)N2CCN(c3ccccc3)CC2)c1 | 8.71% (inactive) |
| Cc1ccc(/C=C(\CCC(=O)O)c2nc3ccccc3s2)cc1[N+](=O)[O-] | -3.79% (inactive) |
| O=C(Nc1cccc(Cl)c1)N1CCN(c2ccccc2)CC1 | -1.38% (inactive) |
| CC(=O)c1ccc(N2CCN(C(=O)c3cccc(F)c3)CC2)cc1 | -1.71% (inactive) |
| O=C(Nc1cccc(F)c1)N1CCN(c2ccccc2)CC1 | 5.56% (inactive) |

System: A549 viability, CellTiter-Glo ATP luminescence, 72 h
Assay: as above
Details: not given

| SMILES | AC50 |
| --- | --- |
| CC(=O)c1ccc(N2CCN(C(=O)c3ccccc3)CC2)cc1 | > 26 µM (inactive) |
| CCc1ccc(N2CCN(C(=O)c3ccc4c(c3)OCO4)CC2)cc1 | > 26 µM (inactive) |
| O=C(Nc1ccc(Cl)c(-c2nc3ccccc3[nH]2)c1)c1cccnc1 | > 26 µM (inactive) |
| Cc1ccccc1/C=C(\CCC(=O)O)c1nc2ccccc2s1 | > 26 µM (inactive) |
| Cc1cc(C)n2nc(C(=O)Nc3cccnc3)nc2n1 | > 26 µM (inactive) |
